Source: US20230150951A1, “2,5- OR 2,6-DISUBSTITUTED HYDROQUINONE DERIVATIVES WITH AT LEAST ONE CARBOXY, SULFO OR AMIDO GROUP USEFUL AS MEDICAMENTS” (OM PHARMA SA, priority 2020, published 2023)
Where two headings read alike, the source gives them in different places.

Experiments:
Format in all cases: cell-based
[1] = tested on: TNF-alpha; test: Cytokine release after LPS induction on human whole blood: TNFα
Protocol: (§1) Aim of this in vitro method is to assess compounds effects on release of a panel of cytokines from whole blood following lipopolysaccharide (LPS) induced inflammatory reaction. Whole blood was incubated with compounds for 1 h prior to LPS induction. Cytokine levels in blood were measured using a multiplex FACS-based panel.
(§2) IC50 values determined for the tested compounds expressed in microM [μM] and the values for the inhibition of cytokines were listed for each compound.
(§3) Effect on cytokines release after LPS induction was performed on the compounds dissolved in DMSO or H2O to reach 10-fold concentrated stock solutions and dissolved in culture media.
(§4) Test system: Whole blood was removed from a single donor (into lithium heparin coated tubes; BD Vacutainer; 367886) and diluted 1:5 with RPMI 1640 (Thermo Fisher, 61870036). Within 30 minutes of sampling, blood was incubated with compounds for 1 h prior to LPS stimulation (O111:B4—Sigma L4391; 10 ng/ml final concentration). Stimulation continued under standard cell culture conditions (37° C. with 5% CO2) overnight (18 h), after which plates were centrifuged and supernatant removed and frozen at −80° C. until used for analyses.
(§5) Dilution of test compounds: 10×concentrated solutions (concerning to the final assay concentrations) of each test compound were prepared with the appropriate solvent (in DMSO or in water). These 10× compound solutions (10 μl) were then added to 90 μl pre-diluted whole blood (whole blood: RPMI1640, 1:5) resulting in the final assay concentration.
(§6) Test method: Diluted whole blood (80 μl) was pre-incubated with compounds (10 μl) to give final assay concentrations of 100, 30, 10, 3, 1, 0.3 and 0.1×10^−6M. Blood was incubated at 37° C. with 5% CO2 for 1 h. LPS was diluted in cell culture media to a concentration of […]; 10 μl was added to the whole blood to give a final concentration of 10 ng/ml. Plates were incubated at 37° C. for 18 h. Plates were centrifuged at 3,000 RPM for 5 minutes at 4° C. and supernatant removed and frozen at −80° C. until FACS analysis was carried out.
(§7) Cytokine release was measured using a custom multiplex system (ELISA Genie) according to manufacturers instructions. Prepared samples were run on an Attune NxT flow cytometer (Thermo Fisher).
(§8) Quantification of cytokine release inhibition: known concentration standards were run as part of the cytokine panel to allow quantification of each cytokine concentration in each sample. This was carried out using FCAP Array v3.0 software.
(§9) Results: The dose response relationship on cytokine release following LPS induction of inflammatory response in whole blood was assessed for all compounds. IC50 values were determined for each compound for a panel of cytokines (GM-CSF, IFN-gamma, IL-1beta, IL-2, IL-4, IL-5, IL-6, IL-8, IL-9, IL-10, IL-12p40, IL-13, IL-17A, IL-17F, IL-18, IL-21, IL-22, IL-33, TGF-beta, TNF-alpha, TNF-beta).

[2] = tested on: IL-33; test: Cytokine release after LPS induction on human whole blood: IL-33
Protocol: as §1, §2, §3, §4, §5, §6, §7, §8, §9

[3] = tested on: IL-4; test: Cytokine release after LPS induction on human whole blood: IL-4
Protocol: as §1, §2, §3, §4, §5, §6, §7, §8, §9

[4] = tested on: Human neutrophils; test: Neutrophil adhesion under static conditions; conditions: fMLP-stimulated adhesion to fibrinogen; method: 40 μM and 80 μM, concentration of the value not stated
Summary of the method: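 Donor buffy-coat neutrophils (3×10^6/ml, PBS with Ca/Mg, 10% FCS, pH 7.2) preincubated 30 min at 37° C with 40 μM or 80 μM compound, then stimulated 1 min at 37° C with 1 nM fMLP on fibrinogen-coated glass. Adherent cells fixed and counted by computer; mean ± SD, unpaired t-test.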

[5] = tested on: TGF-beta; test: Cytokine release after LPS induction on human whole blood: TGFβ
Protocol: as §1, §2, §3, §4, §5, §6, §7, §8, §9

[6] = tested on: IL-18; test: Cytokine release after LPS induction on human whole blood: IL-18
Protocol: as §1, §2, §3, §4, §5, §6, §7, §8, §9

[7] = tested on: Human neutrophils; test: Inhibition of ROS production in human neutrophils (isoluminol chemiluminescence); conditions: Homo sapiens, Neutrophil, fMLP+TNF-α stimulated PMN
Summary of the method: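 Neutrophils from healthy-donor buffy coats (3×10^6/ml in HBSS with Ca/Mg) pre-incubated 30 min at 37° C with compound (0.1–10 μM), primed with TNF-α 20 ng/ml for 10 min, then added to fibrinogen-coated wells. Isoluminol/HRP chemiluminescence recorded every 25 sec for 250 sec after fMLP (1 μM), background-subtracted.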

[8] = tested on: GM-CSF; test: Cytokine release after LPS induction on human whole blood: GM-CSF
Protocol: as §1, §2, §3, §4, §5, §6, §7, §8, §9

[9] = Homo sapiens, LPS 10 ng/ml, 18 h, read-out: Whole Blood: TNF α IC50
[10] = human whole blood, inhibition of LPS induced inflammation, read-out: IC50 TNFa
[11] = Homo sapiens, LPS 10 ng/ml, 18 h, read-out: Whole Blood: IL-33 IC50
[12] = human whole blood, inhibition of LPS induced inflammation, read-out: IC50 IL-33
[13] = Homo sapiens, LPS 10 ng/ml, 18 h, read-out: Whole Blood: IL-4 IC50
[14] = human whole blood, inhibition of LPS induced inflammation, read-out: IC50 IL-4
[15] = Homo sapiens, LPS 10 ng/ml, 18 h, read-out: Whole Blood: TGFβ IC50
[16] = human whole blood, inhibition of LPS induced inflammation, read-out: IC50 TGFbeta
[17] = Homo sapiens, LPS 10 ng/ml, 18 h, read-out: Whole Blood: IL-18 IC50
[18] = human whole blood, inhibition of LPS induced inflammation, read-out: IC50 IL-18
[19] = Homo sapiens, LPS 10 ng/ml, 18 h, read-out: Whole Blood: GM-CSF IC50
[20] = human whole blood, inhibition of LPS induced inflammation, read-out: IC50 GM-CSF

Row | SMILES | IC50 [1, 9] | IC50 [1, 10] | IC50 [2, 11] | IC50 [2, 12] | IC50 [3, 13] | IC50 [3, 14] | IC50 [5, 15] | IC50 [5, 16] | IC50 [6, 17] | IC50 [6, 18] | IC50 [8, 19] | IC50 [8, 20] | IC50 [7] | Neutrophil adhesion inhibition [4] | inhibition at 0.3 µM [7]
1 | O=C(O)Cc1cc(O)c(C(=O)Nc2ccccc2-c2nnn[nH]2)cc1O [IIIa-001aTz] | 0.31 µM | 0.31 µM | 0.14 µM | 0.14 µM | > 100 µM | 100 µM | > 100 µM | 100 µM | 27.7 µM | 27.7 µM | > 100 µM | 100 µM | – | 39.74% | 69.3%
2 | O=C(O)Cc1cc(O)c(C(=O)Nc2c(C(=O)O)cccc2C(=O)O)cc1O [IIIa-013a, 2-(4-(carboxymethyl)-2,5-dihydroxybenzamido)isophthalic acid] | 0.51 µM | 0.51 µM | 1.11 µM | 1.11 µM | > 100 µM | 100 µM | > 100 µM | 100 µM | > 100 µM | 100 µM | 27.8 µM | 27.8 µM | – | 30.667% | 76.5%
3 | O=C(O)c1cc(NC(=O)c2cc(O)cc(C(=O)Nc3ccc(O)c(C(=O)O)c3)c2O)ccc1O [IIc-007a, 5-(3-(3-carboxy-4-hydroxyphenylaminocarbonyl)-2,5-dihydroxybenzamido)-2-hydroxy benzoic acid] | 0.03 µM | 0.03 µM | 0.18 µM | 0.18 µM | > 100 µM | 100 µM | > 100 µM | 100 µM | > 100 µM | 100 µM | 26 µM | 26 µM | – | 64.61% | 93%
4 | O=C(O)c1cc(O)cc(CSCc2cc(O)cc(C(=O)O)c2O)c1O [IVc-058a, 3-((2,5-Dihydroxy-3-carboxyphenyl)methylthiomethyl)-2,5-dihydroxybenzoic acid] | 0.18 µM | 0.18 µM | 33.9 µM | 33.9 µM | > 100 µM | 100 µM | > 100 µM | 100 µM | > 100 µM | 100 µM | > 100 µM | 100 µM | 0.29 µM | 43.5% | 77%

Continued by falling IC50 [1, 9], values first:

Row | IC50 [1, 9] | IC50 [1, 10] | IC50 [2, 11] | IC50 [2, 12] | IC50 [3, 13] | IC50 [3, 14] | IC50 [5, 15] | IC50 [5, 16] | IC50 [6, 17] | IC50 [6, 18] | IC50 [8, 19] | IC50 [8, 20] | IC50 [7] | SMILES | Neutrophil adhesion inhibition [4] | inhibition at 0.3 µM [7]
5 | 0.15 µM | 0.15 µM | 2.93 µM | 2.93 µM | > 100 µM | 100 µM | > 100 µM | 100 µM | > 100 µM | 100 µM | > 100 µM | 100 µM | – | CC(=O)N(Cc1cc(O)c(C(=O)O)cc1O)Cc1cc(O)c(C(=O)O)cc1O [IIIc-057a, N,N-Bis(4-carboxy-2,5-dihydroxyphenylmethyl)acetamide] | 40.04% | 90.3%
6 | 0.11 µM | 0.11 µM | 0.29 µM | 0.29 µM | > 100 µM | 100 µM | > 100 µM | 100 µM | 2.95 µM | 2.95 µM | > 100 µM | 100 µM | – | O=C(O)c1cc(O)ccc1NC(=O)c1cc(O)cc(C(=O)Nc2ccc(O)cc2C(=O)O)c1O [IIc-009a, 2-(3-(2-carboxy-4-hydroxyphenylaminocarbonyl)-2,5-dihydroxybenzamido)-5-hydroxyl benzoic acid] | 53.15% | 75.3%
7 | 0.03 µM | 0.03 µM | 0.31 µM | 0.31 µM | > 100 µM | 100 µM | > 100 µM | 100 µM | 32.4 µM | 32.4 µM | 31.2 µM | 31.2 µM | – | O=C(O)c1cc(O)c(CN(Cc2cc(O)c(C(=O)O)cc2O)Cc2cc(O)c(C(=O)O)cc2O)cc1O [IIIc-061a, Tris(4-carboxy-2,5-dihydroxyphenylmethyl)amine] | 58.69% | 92.5%
8 | 0.02 µM | 0.02 µM | 12.1 µM | 12.1 µM | > 100 µM | 100 µM | > 100 µM | 100 µM | > 100 µM | 100 µM | > 100 µM | 100 µM | 0.62 µM | O=C(O)c1ccccc1CNC(=O)c1cc(O)cc(C(=O)O)c1O [IIa-053a, 3-(2-Carboxyphenylmethylaminocarbonyl)-2,5-dihydroxybenzoic acid] | 20% | 63.1%
